{"source": "patent US20240173440A1", "about": "“HIGH PURITY COPPER RADIOPHARMACEUTICAL COMPOSITIONS AND DIAGNOSTIC AND THERAPEUTIC USES THEREOF” (Nuclidium AG, priority 2022, published 2024)", "key": {"[1]": {"system": "HT-1080.hFAP cells", "test": "In vitro cellular uptake (cell surface and internalized fractions) in HT-1080.hFAP cells", "type": "cell-based, human", "procedure": "(§1) The cellular uptake was studied in vitro using intact cells seeded in 6-well plates overnight. On the day of the experiment, the cells were washed and incubated with each of the exemplified [^61Cu]Cu-radiotracer at different time points, either alone or in the presence of a blocking agent to distinguish between specific and non-specific uptake. At each investigated time point, the medium containing the unbound (free) radiotracer was removed, followed by two washing steps with ice-cold phosphate-buffered saline. The cells were then treated 2×5 min with ice-cold glycine solution (0.05 M, pH 2.8) to detach the cell surface-bound radiotracer (acid released). Afterwards, the cells containing the internalized radiotracer were detached with 1 M NaOH at 37° C. and collected for measurement. The amount of specific cell surface-bound and internalized radiotracer is expressed as percentage of the total applied activity, after subtracting the non-specific values.\nas §1, with “^61Cu-labeled conjugate” for “of the exemplified [^61Cu]Cu-radiotracer”\nThe cells were then preconditioned in 360 μL of assay medium (MEM medium without supplements) at 37° C. for 60 min. 40 μL of a 2 nM solution of ^61Cu-labeled radioligand was added and the cells were incubated at 37° C. The cellular uptake was interrupted at different time points (15 min, 1 hour and 4 hours), by washing twice with ice-cold PBS. Cell surface-bound radioligand was obtained by washing cells twice with ice-cold glycine buffer (pH 2.8), followed by a collection of the internalized fraction with 1 M NaOH. The activity in each fraction was measured in a γ-counter (Cobra II)."}, "[2]": {"system": "HT-1080.hFAP and HT-1080.wt xenografts", "test": "Quantitative biodistribution in HT-1080.hFAP and HT-1080.wt xenografted mice", "type": "in vivo", "conditions": "for Biodistribution HT-1080.wt: FAP-negative tumor; for Biodistribution HT-1080.hFAP: FAP-positive tumor", "procedure": "The tumors were allowed to grow to an average volume of 100-200 mm3.\nBiodistribution Studies: The xenografted mice were randomized (n=5 per group) and injected intravenously via the tail vein with the ^61Cu-labeled radioligands (100 μL, […], 0.8-1MBq). Mice were euthanized 1h and 4h pi. by CO2 asphyxiation. Organs of interest and blood were collected, rinsed of excess blood, blotted dry, weighed, and counted in a […]. The samples were counted against a suitably diluted aliquot of the injected solution as the standard and the results are expressed as the percentage of the injected activity per gram of tissue (0% I.A./g)+SD."}, "[3]": {"target": "hFAP (Homo sapiens (Human), UniProt Q12884)", "sequence (Q12884 whole entry)": "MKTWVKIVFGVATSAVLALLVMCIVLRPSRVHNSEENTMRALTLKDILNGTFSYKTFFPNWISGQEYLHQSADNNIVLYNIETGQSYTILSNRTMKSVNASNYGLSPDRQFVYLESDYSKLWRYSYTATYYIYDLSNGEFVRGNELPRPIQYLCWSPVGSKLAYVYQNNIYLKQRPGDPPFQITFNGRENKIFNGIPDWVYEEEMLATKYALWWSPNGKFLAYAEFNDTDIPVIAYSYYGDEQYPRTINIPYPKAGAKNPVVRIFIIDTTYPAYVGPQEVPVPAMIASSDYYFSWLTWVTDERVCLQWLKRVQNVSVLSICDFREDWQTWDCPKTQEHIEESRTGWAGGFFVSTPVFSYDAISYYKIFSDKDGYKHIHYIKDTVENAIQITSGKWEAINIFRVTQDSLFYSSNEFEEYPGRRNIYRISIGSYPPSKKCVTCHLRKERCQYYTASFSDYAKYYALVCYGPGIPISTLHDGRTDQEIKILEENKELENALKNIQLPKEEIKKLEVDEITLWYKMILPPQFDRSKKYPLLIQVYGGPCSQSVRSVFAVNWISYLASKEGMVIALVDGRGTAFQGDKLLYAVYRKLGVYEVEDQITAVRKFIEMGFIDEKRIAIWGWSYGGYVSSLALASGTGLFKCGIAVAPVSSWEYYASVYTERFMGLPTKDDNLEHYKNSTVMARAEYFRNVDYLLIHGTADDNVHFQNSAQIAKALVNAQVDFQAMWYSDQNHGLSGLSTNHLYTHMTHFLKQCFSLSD", "test": "Saturation binding on isolated HEK-293.hFAP cell membranes", "set-up": "Bmax: unit not given here", "conditions": "37° C.", "procedure": "The cells were homogenized using Ultra-Turrax, and the homogenized suspension was centrifuged at 500×g for 10 min at 4° C. The supernatant was collected in centrifuge tubes (Beckman Coulter Inc., Brea, CA, USA). This procedure was then repeated 5 times. The collected supernatant was centrifuged in an ultra-centrifuge (Beckman) at 4° C. for 55 min at 49,000×g. Then, the pellet was re-suspended in 10 mM ice-cold HEPES buffer (pH 7.5), aliquoted, and stored at −80° C. The protein concentration of those membrane suspensions was determined by the Bradford method, BSA as the standard.\nEach assay tube contained 170 μL of binding buffer (20 mM HEPES, pH 7.4, containing 4 mM μgCl2, 0.2% BSA, 20 μg/L bacitracin, 20 μg/L PMSF and 200,000 KIU/L aprotinin). The incubation was initiated by adding 30 μL of radioligand solution at 10 times the final concentration and 100 μL of cell membrane suspension to yield 10 μg of protein per well. For the determination of the non-specific binding, 140 μL of the above binding buffer was added along with 30 μL of FAPI-46 to obtain (0.1 mM). Bound fractions were plotted versus the corresponding radioligand concentration at equilibrium. The dissociation constant (KD) and maximal binding capacity (Bmax) values were calculated using GraphPad Software Inc., Prism 7, San Diego, CA, USA (Table 33 and FIG. 21)."}, "[4]": {"conditions": "1 h p.i., HT-1080.hFAP and HT-1080.wt xenografts"}, "[5]": {"conditions": "4 h p.i., HT-1080.hFAP and HT-1080.wt xenografts"}}, "data": [{"smiles": "N#C[C@@H]1CC(F)(F)CN1C(=O)CNC(=O)c1ccnc2ccc(NC(=O)CCC(=O)N3CCN(C(=O)CC[C@H](C(=O)O)N4CCN5CCN(CC4)CC(=O)[O][61Cu][O]C(=O)C5)CC3)cc12", "note": "[[^61Cu]Cu-NODAGA-F3]", "values": [{"measurement": "Cell surface fraction", "setting": "[1]; 15 min, HT-1080.hFAP cells, specific uptake (minus HT-1080.wt)", "result": "0.9 ± 0.3 % of the applied activity"}, {"measurement": "Cell surface fraction", "setting": "[1]; Time Point 15 min, 0.2 nM", "result": "0.9 ± 0.3 percentage of the total applied activity"}, {"measurement": "Biodistribution Heart", "setting": "[2]; 1 hour p.i.", "result": "0.7 ± 0.1", "unit": "% I.A./g"}, {"measurement": "Biodistribution Intestine", "setting": "[2]; 1 hour p.i.", "result": "0.8 ± 0.2", "unit": "% I.A./g"}, {"measurement": "Biodistribution Liver", "setting": "[2]; 1 hour p.i.", "result": "0.9 ± 0.1", "unit": "% I.A./g"}, {"measurement": "Biodistribution Spleen", "setting": "[2]; 1 hour p.i.", "result": "0.5 ± 0.1", "unit": "% I.A./g"}, {"measurement": "Biodistribution Stomach", "setting": "[2]; 1 hour p.i.", "result": "0.8 ± 0.1", "unit": "% I.A./g"}, {"measurement": "Biodistribution Adrenal", "setting": "[2]; [4]", "result": "2.1 ± 0.6", "unit": "% IA/g"}, {"measurement": "Biodistribution Blood", "setting": "[2]; [4]", "result": "1.7 ± 0.1", "unit": "% IA/g"}, {"measurement": "Biodistribution Femur", "setting": "[2]; [4]", "result": "5.4 ± 1.2", "unit": "% IA/g"}, {"measurement": "Biodistribution HT1080.hFAP (FAP-positive tumor)", "setting": "[2]; [4]", "result": "7.9 ± 0.9", "unit": "% IA/g"}, {"measurement": "Biodistribution HT1080.wt (FAP-negative tumor)", "setting": "[2]; [4]", "result": "4.0 ± 2.2", "unit": "% IA/g"}, {"measurement": "Biodistribution Heart", "setting": "[2]; [4]", "result": "0.7 ± 0.1", "unit": "% IA/g"}, {"measurement": "Biodistribution Intestine", "setting": "[2]; [4]", "result": "0.8 ± 0.2", "unit": "% IA/g"}, {"measurement": "Biodistribution Kidney", "setting": "[2]; [4]", "result": "1.6 ± 0.3", "unit": "% IA/g"}, {"measurement": "Biodistribution Liver", "setting": "[2]; [4]", "result": "0.9 ± 0.1", "unit": "% IA/g"}, {"measurement": "Biodistribution Lung", "setting": "[2]; [4]", "result": "1.2 ± 0.1", "unit": "% IA/g"}, {"measurement": "Biodistribution Muscle", "setting": "[2]; [4]", "result": "2.1 ± 0.8", "unit": "% IA/g"}, {"measurement": "Biodistribution Pancreas", "setting": "[2]; [4]", "result": "1.6 ± 0.2", "unit": "% IA/g"}, {"measurement": "Biodistribution Spleen", "setting": "[2]; [4]", "result": "0.5 ± 0.1", "unit": "% IA/g"}, {"measurement": "Biodistribution Stomach", "setting": "[2]; [4]", "result": "0.8 ± 0.1", "unit": "% IA/g"}, {"measurement": "Biodistribution Blood", "setting": "[2]; 4 hours p.i.", "result": "0.9 ± 0.0", "unit": "% I.A./g"}, {"measurement": "Biodistribution Heart", "setting": "[2]; 4 hours p.i.", "result": "0.5 ± 0.0", "unit": "% I.A./g"}, {"measurement": "Biodistribution Intestine", "setting": "[2]; 4 hours p.i.", "result": "0.4 ± 0.1", "unit": "% I.A./g"}, {"measurement": "Biodistribution Kidneys", "setting": "[2]; 4 hours p.i.", "result": "1.0 ± 0.2", "unit": "% I.A./g"}, {"measurement": "Biodistribution Liver", "setting": "[2]; 4 hours p.i.", "result": "0.7 ± 0.1", "unit": "% I.A./g"}, {"measurement": "Biodistribution Lung", "setting": "[2]; 4 hours p.i.", "result": "0.7 ± 0.1", "unit": "% I.A./g"}, {"measurement": "Biodistribution Pancreas", "setting": "[2]; 4 hours p.i.", "result": "0.9 ± 0.0", "unit": "% I.A./g"}, {"measurement": "Biodistribution Spleen", "setting": "[2]; 4 hours p.i.", "result": "0.3 ± 0.0", "unit": "% I.A./g"}, {"measurement": "Biodistribution Stomach", "setting": "[2]; 4 hours p.i.", "result": "0.5 ± 0.0", "unit": "% I.A./g"}, {"measurement": "Biodistribution Adrenal", "setting": "[2]; [5]", "result": "1.4 ± 0.3", "unit": "% IA/g"}, {"measurement": "Biodistribution Blood", "setting": "[2]; [5]", "result": "0.9 ± 0.0", "unit": "% IA/g"}, {"measurement": "Biodistribution Femur", "setting": "[2]; [5]", "result": "3.7 ± 0.3", "unit": "% IA/g"}, {"measurement": "Biodistribution HT1080.hFAP (FAP-positive tumor)", "setting": "[2]; [5]", "result": "6.4 ± 2.0", "unit": "% IA/g"}, {"measurement": "Biodistribution HT1080.wt (FAP-negative tumor)", "setting": "[2]; [5]", "result": "1.8 ± 0.3", "unit": "% IA/g"}, {"measurement": "Biodistribution Heart", "setting": "[2]; [5]", "result": "0.5 ± 0.0", "unit": "% IA/g"}, {"measurement": "Biodistribution Intestine", "setting": "[2]; [5]", "result": "0.4 ± 0.1", "unit": "% IA/g"}, {"measurement": "Biodistribution Kidney", "setting": "[2]; [5]", "result": "1.0 ± 0.2", "unit": "% IA/g"}, {"measurement": "Biodistribution Liver", "setting": "[2]; [5]", "result": "0.7 ± 0.1", "unit": "% IA/g"}, {"measurement": "Biodistribution Lung", "setting": "[2]; [5]", "result": "0.7 ± 0.1", "unit": "% IA/g"}, {"measurement": "Biodistribution Muscle", "setting": "[2]; [5]", "result": "1.1 ± 0.1", "unit": "% IA/g"}, {"measurement": "Biodistribution Pancreas", "setting": "[2]; [5]", "result": "0.9 ± 0.0", "unit": "% IA/g"}, {"measurement": "Biodistribution Spleen", "setting": "[2]; [5]", "result": "0.3 ± 0.0", "unit": "% IA/g"}, {"measurement": "Biodistribution Stomach", "setting": "[2]; [5]", "result": "0.5 ± 0.0", "unit": "% IA/g"}, {"measurement": "Biodistribution HT-1080.wt", "setting": "[2]; 1 hour p.i.", "result": "4.0 ± 2.2", "unit": "% I.A./g"}, {"measurement": "Biodistribution HT-1080.wt", "setting": "[2]; 4 hours p.i.", "result": "1.8 ± 0.3", "unit": "% I.A./g"}, {"measurement": "Biodistribution HT-1080.hFAP", "setting": "[2]; 1 hour p.i.", "result": "7.9 ± 0.9", "unit": "% I.A./g"}, {"measurement": "Biodistribution HT-1080.hFAP", "setting": "[2]; 4 hours p.i.", "result": "6.4 ± 2.0", "unit": "% I.A./g"}, {"measurement": "accumulation in tumor and target-positive tissues", "setting": "[2]; HT-1080.hFAP and HT-1080.wt xenografts", "result": "high accumulation in FAP-positive (HT-1080.hFAP) tumor and murine-FAP-positive tissues"}, {"measurement": "Bmax", "setting": "[3]", "result": "7.3-8.1"}]}]}
